# Experiment: pH Stability Test
# Format: physicochemical
# Details: 100 mg solid dissolved in 10 ml deionized water, pH meter; hydrochloride
# Protocol: First, 100 mg of the X-form crystal solid of Examples 1 to 3, and the amorphous solid of Comparative Examples 1-6 were dissolved in 10 ml of deionized water respectively. Then, pH value of the resulting solutions was measured with a pH meter (Type No: Mettler Toledo MP 250). The measurement results are shown in Table 3, wherein the result of the amorphous and A-form crystals of Comparative Examples 4-9 was quoted from U.S. Pat. No. 7,803,942B2.
row,Compound,pH
1,"CN(C(=O)/C=C/c1ccoc1)[C@@H]1CC[C@@]2(O)[C@H]3Cc4ccc(O)c5c4[C@@]2(CCN3CC2CC2)[C@H]1O5.Cl (relative stereo) [Comparative Example 1, 17-cyclopropylmethyl-3,14β-dihydroxy-4,5α-epoxy-6β-[N-methyl-trans-3-(3-furyl)acrylamido]morphinan hydrochloride]",4.4
2,"CN(C(=O)/C=C/c1ccoc1)[C@@H]1CC[C@@]2(O)[C@H]3Cc4ccc(O)c5c4[C@@]2(CCN3CC2CC2)[C@H]1O5.Cl (relative stereo) [Comparative Example 2, 17-cyclopropylmethyl-3,14β-dihydroxy-4,5α-epoxy-6β-[N-methyl-trans-3-(3-furyl)acrylamido]morphinan hydrochloride]",2.6
3,"CN(C(=O)/C=C/c1ccoc1)[C@@H]1CC[C@@]2(O)[C@H]3Cc4ccc(O)c5c4[C@@]2(CCN3CC2CC2)[C@H]1O5.Cl (relative stereo) [Comparative Example 3, 17-cyclopropylmethyl-3,14β-dihydroxy-4,5α-epoxy-6β-[N-methyl-trans-3-(3-furyl)acrylamido]morphinan hydrochloride]",3.7
4,"CN(C(=O)/C=C/c1ccoc1)[C@@H]1CC[C@@]2(O)[C@H]3Cc4ccc(O)c5c4[C@@]2(CCN3CC2CC2)[C@H]1O5.Cl (relative stereo) [Example 1, 17-cyclopropylmethyl-3,14β-dihydroxy-4,5α-epoxy-6β-[N-methyl-trans-3-(3-furyl)acrylamido]morphinan hydrochloride]",3.5
5,"CN(C(=O)/C=C/c1ccoc1)[C@@H]1CC[C@@]2(O)[C@H]3Cc4ccc(O)c5c4[C@@]2(CCN3CC2CC2)[C@H]1O5.Cl (relative stereo) [Example 2, 17-cyclopropylmethyl-3,14β-dihydroxy-4,5α-epoxy-6β-[N-methyl-trans-3-(3-furyl)acrylamido]morphinan hydrochloride]",3.6
6,"CN(C(=O)/C=C/c1ccoc1)[C@@H]1CC[C@@]2(O)[C@H]3Cc4ccc(O)c5c4[C@@]2(CCN3CC2CC2)[C@H]1O5.Cl (relative stereo) [Example 3, 17-cyclopropylmethyl-3,14β-dihydroxy-4,5α-epoxy-6β-[N-methyl-trans-3-(3-furyl)acrylamido]morphinan hydrochloride]",3.6

# Experiment: not given
# Details: result quoted from U.S. Pat. No. 7,803,942B2; hydrochloride; cited from earlier work
row,Compound,pH
1,"CN(C(=O)/C=C/c1ccoc1)[C@@H]1CC[C@@]2(O)[C@H]3Cc4ccc(O)c5c4[C@@]2(CCN3CC2CC2)[C@H]1O5.Cl (relative stereo) [Comparative Example 4, 17-cyclopropylmethyl-3,14β-dihydroxy-4,5α-epoxy-6β-[N-methyl-trans-3-(3-furyl)acrylamido]morphinan hydrochloride]",3.7
2,"CN(C(=O)/C=C/c1ccoc1)[C@@H]1CC[C@@]2(O)[C@H]3Cc4ccc(O)c5c4[C@@]2(CCN3CC2CC2)[C@H]1O5.Cl (relative stereo) [Comparative Example 5, 17-cyclopropylmethyl-3,14β-dihydroxy-4,5α-epoxy-6β-[N-methyl-trans-3-(3-furyl)acrylamido]morphinan hydrochloride]",4.7
3,"CN(C(=O)/C=C/c1ccoc1)[C@@H]1CC[C@@]2(O)[C@H]3Cc4ccc(O)c5c4[C@@]2(CCN3CC2CC2)[C@H]1O5.Cl (relative stereo) [Comparative Example 6, 17-cyclopropylmethyl-3,14β-dihydroxy-4,5α-epoxy-6β-[N-methyl-trans-3-(3-furyl)acrylamido]morphinan hydrochloride]",3.5
4,"CN(C(=O)/C=C/c1ccoc1)[C@@H]1CC[C@@]2(O)[C@H]3Cc4ccc(O)c5c4[C@@]2(CCN3CC2CC2)[C@H]1O5.Cl (relative stereo) [Comparative Example 7, 17-cyclopropylmethyl-3,14β-dihydroxy-4,5α-epoxy-6β-[N-methyl-trans-3-(3-furyl)acrylamido]morphinan hydrochloride]",5.8
5,"CN(C(=O)/C=C/c1ccoc1)[C@@H]1CC[C@@]2(O)[C@H]3Cc4ccc(O)c5c4[C@@]2(CCN3CC2CC2)[C@H]1O5.Cl (relative stereo) [Comparative Example 8, 17-cyclopropylmethyl-3,14β-dihydroxy-4,5α-epoxy-6β-[N-methyl-trans-3-(3-furyl)acrylamido]morphinan hydrochloride]",5.4
6,"CN(C(=O)/C=C/c1ccoc1)[C@@H]1CC[C@@]2(O)[C@H]3Cc4ccc(O)c5c4[C@@]2(CCN3CC2CC2)[C@H]1O5.Cl (relative stereo) [Comparative Example 9, 17-cyclopropylmethyl-3,14β-dihydroxy-4,5α-epoxy-6β-[N-methyl-trans-3-(3-furyl)acrylamido]morphinan hydrochloride]",5.6

# Source: US8816084B1, “Crystals of morphinan derivative, manufacturing method thereof, and pharmaceutical composition using the same” (priority 2013, dated 2014)
